# Data published in patent US12226401B2, “Molecular genetic approach to treatment and diagnosis of alcohol and drug dependence” (priority 2010, dated 2025).
# Key:
# Assay type in all cases: in vivo, human
# [1] = system: methamphetamine dependent subjects; assay: Methamphetamine/Ondansetron study: proportion of subjects with methamphetamine-free (clean) week, GEE analysis by 5'-HTTLPR genotype
# Text: Methods: Data were modeled using generalized estimating equations (GEE). […] Independent variables were genotype, group, weeks since randomization and the interaction between treatment group and weeks since randomization. […] The model's group and genotype terms allowed for possible differences at baseline due to ineffective randomization and genotype, respectively. Group consisted of two levels: placebo vs. all active arms combined, where all active arms were combined at the request of the study sponsor and investigators. Subjects were of three different genotypes—SS, LL and LS. At the request of the investigator, two, separate GEE analyses were run, one for each pairing of a homozygote with the heterozygote (i.e., SS-LS and LL-LS). Due to the small quantity of subjects for which genotyping was conducted (n=34), hypothesis testing used Type III generalized score statistics. Analysis was restricted to data obtained post-randomization. Methods: Data were modeled using generalized estimating equations (GEE). […] Independent variables were genotype, group, weeks since randomization and the interaction between treatment group and weeks since randomization. The hypothesis of primary interest asked if treatment with ondansetron influences rate of change in methamphetamine usage over time. […] The model's group and genotype terms allowed for possible differences at baseline due to ineffective randomization and genotype, respectively. Group consisted of two levels: placebo vs. all active arms combined, where all active arms were combined at the request of the study sponsor and investigators. Subjects were of three different genotypes—SS, LL and LS. At the request of the investigator, two, separate GEE analyses were run, one for each pairing of a homozygote with the heterozygote (i.e., SS-LS and LL-LS). Due to the small quantity of subjects for which genotyping was conducted (n=34), hypothesis testing used Type III generalized score statistics. Analysis was restricted to data obtained post-randomization.
# alcoholics = assay: Predicted treatment outcome with ondansetron by 5'-HTTLPR / rs1042173 genotype matrix; parameters: key: XA being the very best; all the cells marked with an X will be efficacious; Y may respond somewhat; Z will not respond or worsen
# [2] = system: alcohol dependent patients; assay: Phase II study of 283 randomized alcohol dependent subjects: ondansetron response by 5'-HTTLPR and 3'-UTR genotype (PHDD, DDD, PDA, patients with no heavy drinking); settings: LL/TT, LL/TG, LL/GG, LS/TG, and SS/TG genotypes
# Text: The TT and TG genotype groups can be summarized as T carriers.
compound,measurement,setting,value
"Cc1nccn1CC1CCc2c(c3ccccc3n2C)C1=O (stereo not drawn) [ondansetron, 9-methyl-3-[(2-methyl-1H-imidazol-1-yl)methyl]-1,2,3,9-tetrahydrocarbazol-4-one]","Proportion with Clean Week, Mean","[1]; Active Arm Yes (all active arms combined), all genotypes, study week 1",0.55
same,"Proportion with Clean Week, Mean","[1]; Active Arm Yes, all genotypes, study week 2",0.50
same,"Proportion with Clean Week, Mean","[1]; Active Arm Yes, all genotypes, study week 3",0.63
same,"Proportion with Clean Week, Mean","[1]; Active Arm Yes, all genotypes, study week 4",0.53
same,"Proportion with Clean Week, Mean","[1]; Active Arm Yes, all genotypes, study week 5",0.43
same,"Proportion with Clean Week, Mean","[1]; Active Arm Yes, all genotypes, study week 6",0.33
same,"Proportion with Clean Week, Mean","[1]; Active Arm Yes, all genotypes, study week 7",0.46
same,"Proportion with Clean Week, Mean","[1]; Active Arm Yes, all genotypes, study week 8",0.50
same,"Proportion with Clean Week, Mean","[1]; LLLS No, Active Yes, study week 1",0.50
same,"Proportion with Clean Week, Mean","[1]; LLLS No, Active Yes, study week 2",0.33
same,"Proportion with Clean Week, Mean","[1]; LLLS No, Active Yes, study week 3",0.71
same,"Proportion with Clean Week, Mean","[1]; LLLS No, Active Yes, study week 4",0.50
same,"Proportion with Clean Week, Mean","[1]; LLLS No, Active Yes, study week 5",0.25
same,"Proportion with Clean Week, Mean","[1]; LLLS No, Active Yes, study week 6",0.50
same,"Proportion with Clean Week, Mean","[1]; LLLS No, Active Yes, study week 7",0.25
same,"Proportion with Clean Week, Mean","[1]; LLLS No, Active Yes, study week 8",0.00
same,"Proportion with Clean Week, Mean","[1]; LLLS Yes, Active Yes, study week 1",0.58
same,"Proportion with Clean Week, Mean","[1]; LLLS Yes, Active Yes, study week 2",0.60
same,"Proportion with Clean Week, Mean","[1]; LLLS Yes, Active Yes, study week 3",0.58
same,"Proportion with Clean Week, Mean","[1]; LLLS Yes, Active Yes, study week 4",0.55
same,"Proportion with Clean Week, Mean","[1]; LLLS Yes, Active Yes, study week 5",0.50
same,"Proportion with Clean Week, Mean","[1]; LLLS Yes, Active Yes, study week 6",0.25
same,"Proportion with Clean Week, Mean","[1]; LLLS Yes, Active Yes, study week 7",0.56
same,"Proportion with Clean Week, Mean","[1]; LLLS Yes, Active Yes, study week 8",0.57
same,"Proportion with Clean Week, Mean","[1]; SSLS No, Active Yes, study week 1 since randomization",1.00
same,"Proportion with Clean Week, Mean","[1]; SSLS No, Active Yes, study week 2",0.50
same,"Proportion with Clean Week, Mean","[1]; SSLS No, Active Yes, study week 3",1.00
same,"Proportion with Clean Week, Mean","[1]; SSLS No, Active Yes, study week 4",0.50
same,"Proportion with Clean Week, Mean","[1]; SSLS No, Active Yes, study week 5",0.50
same,"Proportion with Clean Week, Mean","[1]; SSLS No, Active Yes, study week 6",0.50
same,"Proportion with Clean Week, Mean","[1]; SSLS No, Active Yes, study week 7",0.50
same,"Proportion with Clean Week, Mean","[1]; SSLS No, Active Yes, study week 8",0.50
same,"Proportion with Clean Week, Mean","[1]; SSLS Yes, Active Yes, study week 1",0.50
same,"Proportion with Clean Week, Mean","[1]; SSLS Yes, Active Yes, study week 2",0.50
same,"Proportion with Clean Week, Mean","[1]; SSLS Yes, Active Yes, study week 3",0.59
same,"Proportion with Clean Week, Mean","[1]; SSLS Yes, Active Yes, study week 4",0.53
same,"Proportion with Clean Week, Mean","[1]; SSLS Yes, Active Yes, study week 5",0.42
same,"Proportion with Clean Week, Mean","[1]; SSLS Yes, Active Yes, study week 6",0.30
same,"Proportion with Clean Week, Mean","[1]; SSLS Yes, Active Yes, study week 7",0.45
same,"Proportion with Clean Week, Mean","[1]; SSLS Yes, Active Yes, study week 8",0.50
same,Proportion of subjects with a methamphetamine-free week over time,"[1]; active group (all active arms combined), 34 subjects, placebo arm declined",remained roughly steady
same,Predicted treatment outcome with ondansetron,alcoholics; genotype LL/GG,X
same,Predicted treatment outcome with ondansetron,alcoholics; genotype LL/TG,X
same,Predicted treatment outcome with ondansetron,alcoholics; genotype LL/TT,XA
same,Predicted treatment outcome with ondansetron,alcoholics; genotype LS/GG,Y
same,Predicted treatment outcome with ondansetron,alcoholics; genotype LS/TG,Y
same,Predicted treatment outcome with ondansetron,alcoholics; genotype LS/TT,X
same,Predicted treatment outcome with ondansetron,alcoholics; genotype SS/GG,Z
same,Predicted treatment outcome with ondansetron,alcoholics; genotype SS/TG,Z
same,Predicted treatment outcome with ondansetron,alcoholics; genotype SS/TT,X
same,Response to ondansetron treatment by genotype,[2],respond to ondansetron treatment
